US6156700A, “3-(1,2-Benzisothiazol- and isoxazol-5-yl)-2,4(1H,3H)-pyrimidinedione or thione and 3-(1,2-benzisothiazol- and isoxazol-5-yl)-4(3H)-pyrimidinone or thione herbicidal agents” (American Cyanmid Company, priority 1998, dated 2000)

Key:
[1] = test system: Morningglory, Ivyleaf, Ipomoea hederacea; experiment: Postemergence herbicidal evaluation, IPOHE; format: in vivo, (L.) Jacq.; conditions: 0.0630 kg/ha
Procedure, shortened: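 Postemergence spray on ~2-wk seedlings: ~0.0157–0.500 kg/ha in acetone/water 50/50, 0.5% TWEEN 20, 40 psi. Greenhouse hold 4–5 wk, then 0–9 visual score; repeat tests averaged.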

ECHCG [2] = experiment: Postemergence herbicidal evaluation; format: in vivo
GALAP [3] = experiment: Postemergence herbicidal evaluation; format: in vivo
GLXMA [4] = experiment: Preemergence herbicidal evaluation; format: in vivo
Experimental: The preemergence and postemergence herbicidal properties of certain compounds of the present invention are compared with certain compounds disclosed in U.S. Pat. Nos. 5,484,763 and 5,523,278. The evaluations are performed as described in Examples 185 and 186. Data in Tables V and VI are reported by the compound number given in Example 185 for the compounds of this invention or by comparative compound letter for the compounds disclosed in U.S. Pat. Nos. 5,484,763 and 5,523,278.

AMBEL [5] = experiment: Postemergence herbicidal evaluation; format: in vivo
ECHCG [6] = experiment: Preemergence herbicidal evaluation; format: in vivo; set-up: scale not given here
ABUTH [7] = experiment: Preemergence herbicidal evaluation; format: in vivo; set-up: scale not given here
IPOSS = experiment: Preemergence herbicidal evaluation; format: in vivo; set-up: scale not given here
AMBEL [8] = experiment: Preemergence herbicidal evaluation; format: in vivo; set-up: scale not given here
SETVI = experiment: Preemergence herbicidal evaluation; format: in vivo; set-up: scale not given here
ZEAMX = experiment: Preemergence herbicidal evaluation; format: in vivo; set-up: scale not given here
CASOB = experiment: Preemergence herbicidal evaluation; format: in vivo; set-up: scale not given here
TRZAWR [9] = experiment: Preemergence herbicidal evaluation; format: in vivo; set-up: scale not given here
GALAP [10] = experiment: Preemergence herbicidal evaluation; format: in vivo; set-up: scale not given here
CHEAL = experiment: Preemergence herbicidal evaluation; format: in vivo; set-up: scale not given here
ABUTH [11] = experiment: Postemergence herbicidal evaluation; format: in vivo
GLXMA [12] = experiment: Postemergence herbicidal evaluation; format: in vivo
TRZAWR [13] = experiment: Postemergence herbicidal evaluation; format: in vivo
ORYSAT = experiment: Postemergence herbicidal evaluation; format: in vivo, Oryza sativa

COc1ccc(C)cc1-c1nsc2ccc(-n3c(=O)cc(C(F)(F)F)n(C)c3=O)cc12 [Compound 1, 3-[3-(6-Methoxy-m-tolyl)-1,2-benzisothiazol-5-yl]-1-methyl-6-(trifluoromethyl)-2,4(1H,3H)-pyrimidinedione]
herbicide rating (0-9) [1]: 9.0

COC(=O)COc1ccc(C)cc1-c1nsc2ccc(-n3c(=O)cc(C(F)(F)F)n(C)c3=O)cc12 [Compound 2, Methyl {{2-{5-[3,6-dihydro-3-methyl-4-(trifluoromethyl) -2,6-dioxo-1(2H)-pyrimidinyl]-1,2-benzisothiazol-3-yl]-p-tolyl}oxy}acetate]
herbicide rating (0-9) [1]: 9.0

COC(=O)C(C)Oc1ccc(C)cc1-c1nsc2ccc(-n3c(=O)cc(C(F)(F)F)n(C)c3=O)cc12 (stereo not shown) [Compound 3]
herbicide rating (0-9) [1]: 9.0

Cn1c(C(F)(F)F)cc(=O)n(-c2ccc3snc(-c4ccccc4)c3c2)c1=O [Compound 4, 1-Methyl-3-(3-phenyl-1,2-benzisothiazol-5-yl)-6-(trifluoromethyl)-2,4(1H,3H)-pyrimidinedione]
herbicidal effect rating (ECHCG [2]; 0.0157-0.0160 kg/ha): 2.0
herbicidal effect rating (ECHCG [2]; 0.0313-0.0320 kg/ha): 5.0
herbicidal effect rating (ECHCG [2]; 0.0625-0.0640 kg/ha): 7.0
herbicidal effect rating (ECHCG [2]; 0.1250 kg/ha): 8.0
herbicidal effect rating (ECHCG [2]; 0.2500 kg/ha): 8.0
herbicidal effect rating (ECHCG [2]; 0.5000 kg/ha): 9.0
herbicidal effect rating (GALAP [3]; 0.0157-0.0160 kg/ha): 4.0
herbicidal effect rating (GALAP [3]; 0.0313-0.0320 kg/ha): 9.0
herbicidal effect rating (GALAP [3]; 0.0625-0.0640 kg/ha): 9.0
herbicidal effect rating (GALAP [3]; 0.1250 kg/ha): 9.0
herbicidal effect rating (GALAP [3]; 0.2500 kg/ha): 9.0
herbicidal effect rating (GALAP [3]; 0.5000 kg/ha): 9.0
herbicidal effect rating (GLXMA [4]; 0.0313-0.0320 kg/ha): 3.0
herbicidal effect rating (GLXMA [4]; 0.0620-0.0630 kg/ha): 9.0
herbicidal effect rating (GLXMA [4]; 0.1250 kg/ha): 9.0
herbicidal effect rating (GLXMA [4]; 0.2500 kg/ha): 7.0
herbicidal effect rating (GLXMA [4]; 0.5000 kg/ha): 9.0
herbicidal effect rating (AMBEL [5]; 0.0157-0.0160 kg/ha): 9.0
herbicidal effect rating (AMBEL [5]; 0.0313-0.0320 kg/ha): 7.0
herbicidal effect rating (AMBEL [5]; 0.0625-0.0640 kg/ha): 9.0
herbicidal effect rating (AMBEL [5]; 0.1250 kg/ha): 9.0
herbicidal effect rating (AMBEL [5]; 0.2500 kg/ha): 9.0
herbicidal effect rating (AMBEL [5]; 0.5000 kg/ha): 9.0
herbicidal effect rating (ECHCG [6]; 0.0313-0.0320 kg/ha): 9.0
herbicidal effect rating (ECHCG [6]; 0.0620-0.0630 kg/ha): 9.0
herbicidal effect rating (ECHCG [6]; 0.1250 kg/ha): 9.0
herbicidal effect rating (ECHCG [6]; 0.2500 kg/ha): 9.0
herbicidal effect rating (ECHCG [6]; 0.5000 kg/ha): 9.0
herbicidal effect rating (ABUTH [7]; 0.0313-0.0320 kg/ha): 9.0
herbicidal effect rating (ABUTH [7]; 0.0620-0.0630 kg/ha): 9.0
herbicidal effect rating (ABUTH [7]; 0.1250 kg/ha): 9.0
herbicidal effect rating (ABUTH [7]; 0.2500 kg/ha): 9.0
herbicidal effect rating (ABUTH [7]; 0.5000 kg/ha): 9.0
herbicidal effect rating (IPOSS; 0.0313-0.0320 kg/ha): 2.0
herbicidal effect rating (IPOSS; 0.0620-0.0630 kg/ha): 4.0
herbicidal effect rating (IPOSS; 0.1250 kg/ha): 7.0
herbicidal effect rating (IPOSS; 0.2500 kg/ha): 9.0
herbicidal effect rating (IPOSS; 0.5000 kg/ha): 9.0
herbicidal effect rating (AMBEL [8]; 0.0313-0.0320 kg/ha): 7.0
herbicidal effect rating (AMBEL [8]; 0.0620-0.0630 kg/ha): 7.0
herbicidal effect rating (AMBEL [8]; 0.1250 kg/ha): 9.0
herbicidal effect rating (AMBEL [8]; 0.2500 kg/ha): 9.0
herbicidal effect rating (AMBEL [8]; 0.5000 kg/ha): 9.0
herbicidal effect rating (SETVI; 0.0313-0.0320 kg/ha): 9.0
herbicidal effect rating (SETVI; 0.0620-0.0630 kg/ha): 9.0
herbicidal effect rating (SETVI; 0.1250 kg/ha): 9.0
herbicidal effect rating (SETVI; 0.2500 kg/ha): 9.0
herbicidal effect rating (SETVI; 0.5000 kg/ha): 9.0
herbicidal effect rating (ZEAMX; 0.0313-0.0320 kg/ha): 3.0
herbicidal effect rating (ZEAMX; 0.0620-0.0630 kg/ha): 7.0
herbicidal effect rating (ZEAMX; 0.1250 kg/ha): 7.0
herbicidal effect rating (ZEAMX; 0.2500 kg/ha): 7.0
herbicidal effect rating (ZEAMX; 0.5000 kg/ha): 7.0
herbicidal effect rating (CASOB; 0.0313-0.0320 kg/ha): 7.0
herbicidal effect rating (CASOB; 0.0620-0.0630 kg/ha): 7.0
herbicidal effect rating (CASOB; 0.1250 kg/ha): 6.0
herbicidal effect rating (CASOB; 0.2500 kg/ha): 9.0
herbicidal effect rating (CASOB; 0.5000 kg/ha): 9.0
herbicidal effect rating (TRZAWR [9]; 0.0313-0.0320 kg/ha): 2.0
herbicidal effect rating (TRZAWR [9]; 0.0620-0.0630 kg/ha): 5.0
herbicidal effect rating (TRZAWR [9]; 0.1250 kg/ha): 7.0
herbicidal effect rating (TRZAWR [9]; 0.2500 kg/ha): 7.0
herbicidal effect rating (TRZAWR [9]; 0.5000 kg/ha): 7.0
herbicidal effect rating (GALAP [10]; 0.0313-0.0320 kg/ha): 9.0
herbicidal effect rating (GALAP [10]; 0.0620-0.0630 kg/ha): 9.0
herbicidal effect rating (GALAP [10]; 0.1250 kg/ha): 6.0
herbicidal effect rating (GALAP [10]; 0.2500 kg/ha): 9.0
herbicidal effect rating (GALAP [10]; 0.5000 kg/ha): 9.0
herbicidal effect rating (CHEAL; 0.0313-0.0320 kg/ha): 9.0
herbicidal effect rating (CHEAL; 0.0620-0.0630 kg/ha): 9.0
herbicidal effect rating (CHEAL; 0.1250 kg/ha): 9.0
herbicidal effect rating (CHEAL; 0.2500 kg/ha): 9.0
herbicidal effect rating (CHEAL; 0.5000 kg/ha): 9.0
herbicidal effect rating (ABUTH [11]; 0.0157-0.0160 kg/ha): 9.0
herbicidal effect rating (ABUTH [11]; 0.0313-0.0320 kg/ha): 9.0
herbicidal effect rating (ABUTH [11]; 0.0625-0.0640 kg/ha): 9.0
herbicidal effect rating (ABUTH [11]; 0.1250 kg/ha): 9.0
herbicidal effect rating (ABUTH [11]; 0.2500 kg/ha): 9.0
herbicidal effect rating (ABUTH [11]; 0.5000 kg/ha): 9.0
herbicidal effect rating (GLXMA [12]; 0.0157-0.0160 kg/ha): 6.0
herbicidal effect rating (GLXMA [12]; 0.0313-0.0320 kg/ha): 5.0
herbicidal effect rating (GLXMA [12]; 0.0625-0.0640 kg/ha): 4.0
herbicidal effect rating (GLXMA [12]; 0.1250 kg/ha): 7.0
herbicidal effect rating (GLXMA [12]; 0.2500 kg/ha): 9.0
herbicidal effect rating (GLXMA [12]; 0.5000 kg/ha): 9.0
herbicidal effect rating (TRZAWR [13]; 0.0157-0.0160 kg/ha): 2.0
herbicidal effect rating (TRZAWR [13]; 0.0313-0.0320 kg/ha): 2.0
herbicidal effect rating (TRZAWR [13]; 0.0625-0.0640 kg/ha): 3.0
herbicidal effect rating (TRZAWR [13]; 0.1250 kg/ha): 3.0
herbicidal effect rating (TRZAWR [13]; 0.2500 kg/ha): 3.0
herbicidal effect rating (TRZAWR [13]; 0.5000 kg/ha): 4.0
herbicidal effect rating (ORYSAT; 0.0157-0.0160 kg/ha): 2.0
herbicidal effect rating (ORYSAT; 0.0313-0.0320 kg/ha): 2.0
herbicidal effect rating (ORYSAT; 0.0625-0.0640 kg/ha): 2.0
herbicidal effect rating (ORYSAT; 0.1250 kg/ha): 3.0
herbicidal effect rating (ORYSAT; 0.2500 kg/ha): 3.0
herbicidal effect rating (ORYSAT; 0.5000 kg/ha): 4.0
